Assay results as given in paper PMC4112151 (Bioorganic & medicinal chemistry, 2014).

Key:
DOPr [1] = molecular target: T1, DOPr (Homo sapiens, UniProt P41143); assay: [35S]GTPγS binding, CHO membranes, standard DPDPE; type: biochemical; conditions: for Kd: Ke/nM DOPr, antagonist Ke versus DPDPE, single agonist concentration
KOPr [2] = molecular target: T2, KOPr (Homo sapiens, UniProt P41145); assay: [35S]GTPγS binding, CHO membranes, standard U69593; type: biochemical; conditions: for Kd: Ke/nM KOPr, antagonist Ke versus U69593, single agonist concentration; for fold more potent as KOPr antagonist than 17-methyl equivalent: ratio of Ke: 5k vs 5b, 5i vs 5e
T2 sequence (P41145 whole entry): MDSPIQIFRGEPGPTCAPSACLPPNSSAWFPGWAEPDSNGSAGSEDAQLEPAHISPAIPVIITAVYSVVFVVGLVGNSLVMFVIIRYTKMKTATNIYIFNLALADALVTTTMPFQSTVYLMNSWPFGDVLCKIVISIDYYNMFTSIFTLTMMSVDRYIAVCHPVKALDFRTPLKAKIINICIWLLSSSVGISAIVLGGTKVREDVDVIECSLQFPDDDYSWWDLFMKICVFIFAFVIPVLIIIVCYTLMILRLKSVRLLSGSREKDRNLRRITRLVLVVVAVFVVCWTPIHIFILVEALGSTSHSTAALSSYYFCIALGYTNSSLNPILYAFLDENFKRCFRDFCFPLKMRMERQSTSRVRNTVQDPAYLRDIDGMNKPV

MOPr [3] = molecular target: T3, MOPr (Homo sapiens, UniProt P35372); assay: [35S]GTPγS binding, CHO membranes, standard DAMGO; type: biochemical; conditions: Ke/nM MOPr, antagonist Ke versus DAMGO, single agonist concentration
T3 sequence (P35372 whole entry): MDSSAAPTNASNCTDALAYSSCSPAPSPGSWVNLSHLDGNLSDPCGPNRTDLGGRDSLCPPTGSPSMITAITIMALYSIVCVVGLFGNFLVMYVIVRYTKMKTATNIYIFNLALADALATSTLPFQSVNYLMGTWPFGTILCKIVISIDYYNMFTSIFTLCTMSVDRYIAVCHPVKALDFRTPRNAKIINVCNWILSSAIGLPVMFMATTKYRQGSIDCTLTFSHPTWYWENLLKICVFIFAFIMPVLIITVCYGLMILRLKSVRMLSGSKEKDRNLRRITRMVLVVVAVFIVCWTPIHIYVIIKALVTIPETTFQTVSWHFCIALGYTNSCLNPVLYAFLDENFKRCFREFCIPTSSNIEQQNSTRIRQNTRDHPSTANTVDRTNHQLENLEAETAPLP

DOPr [4] = molecular target: T1, DOPr; type: binding
KOPr [5] = molecular target: T2, KOPr; type: binding
DOPr [6] = conditions: cited from earlier work
MOPr [7] = molecular target: T3, MOPr; type: binding
MOPr [8] = conditions: read-out: EC50 MOPr partial agonist activity in [35S]GTPγS assay; cited from earlier work
MOPr [9] = conditions: read-out: Ke MOPr antagonist activity in GPI assay; GPI isolated tissue; cited from earlier work
MOPr [10] = assay: Guinea pig ileum; conditions: 7b Ke in GPI (ref 8) vs 5k Ke in [35S]GTPγS assay

T1 sequence (P41143 whole entry): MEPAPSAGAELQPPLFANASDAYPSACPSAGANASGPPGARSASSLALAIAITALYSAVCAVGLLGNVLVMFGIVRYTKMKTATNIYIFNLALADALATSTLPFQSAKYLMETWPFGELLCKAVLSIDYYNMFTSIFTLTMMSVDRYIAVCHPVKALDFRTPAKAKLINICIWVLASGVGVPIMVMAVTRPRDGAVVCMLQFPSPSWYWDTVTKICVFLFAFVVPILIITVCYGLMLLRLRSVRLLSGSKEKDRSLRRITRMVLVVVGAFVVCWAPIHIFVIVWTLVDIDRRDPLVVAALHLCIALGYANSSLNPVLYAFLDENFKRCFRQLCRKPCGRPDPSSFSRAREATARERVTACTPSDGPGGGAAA

Compound | Kd (DOPr [1]) [nM] | Kd (KOPr [2]) [nM] | Kd (MOPr [3]) [nM] | further results
CCOC(=O)Cc1c2c(n(Cc3ccccc3)c1O)[C@@H]1Oc3c(O)ccc4c3[C@@]13CCN(CC1CC1)[C@H](C4)[C@]3(O)C2 [4b] | 6.79 | 4.3 | 6.61 | –
CN1C(=O)CCC2=C1[C@@H]1Oc3c(O)ccc4c3[C@@]13CCN(C)[C@H](C4)[C@]3(O)C2 [5a] | – | 392 | – | –
CN1CC[C@]23c4c5ccc(O)c4O[C@H]2C2=C(CCC(=O)N2Cc2ccccc2)C[C@@]3(O)[C@H]1C5 [5b] | – | 21.3 | – | %stim DOPr (DOPr [1]; % stimulation relative to the standard DPDPE): 94%; fold lower binding affinity at DOPr than at MOPr (DOPr [4]; ratio of Ki, DOPr vs MOPr): around 3 fold; fold lower binding affinity at KOPr than at MOPr (KOPr [5]; ratio of Ki, KOPr vs MOPr): ~6 fold
CN1C(=O)[C@H](CCO)CC2=C1[C@@H]1Oc3c(O)ccc4c3[C@@]13CCN(C)[C@H](C4)[C@]3(O)C2 [5c] | – | 321 | – | –
CN1C(=O)[C@@H](CCO)CC2=C1[C@@H]1Oc3c(O)ccc4c3[C@@]13CCN(C)[C@H](C4)[C@]3(O)C2 [5d] | – | 2140 | – | –
CN1CC[C@]23c4c5ccc(O)c4O[C@H]2C2=C(C[C@@H](CCO)C(=O)N2Cc2ccccc2)C[C@@]3(O)[C@H]1C5 [5e] | – | 29.3 | 32.9 | –
CN1CC[C@]23c4c5ccc(O)c4O[C@H]2C2=C(C[C@H](CCO)C(=O)N2Cc2ccccc2)C[C@@]3(O)[C@H]1C5 [5f] | – | 16.8 | – | –
C[C@@H]1CC2=C([C@@H]3Oc4c(O)ccc5c4[C@@]34CCN(CC3CC3)[C@H](C5)[C@]4(O)C2)N(Cc2ccccc2)C1=O [5g] | 0.23 | 0.23 | 0.5 | –
C[C@H]1CC2=C([C@@H]3Oc4c(O)ccc5c4[C@@]34CCN(CC3CC3)[C@H](C5)[C@]4(O)C2)N(Cc2ccccc2)C1=O [5h] | 0.57 | 2.03 | 0.6 | –
O=C1[C@H](CCO)CC2=C([C@@H]3Oc4c(O)ccc5c4[C@@]34CCN(CC3CC3)[C@H](C5)[C@]4(O)C2)N1Cc1ccccc1 [5i] | 0.47 | 0.73 | 0.35 | fold more potent as KOPr antagonist than 17-methyl equivalent (KOPr [2]): 40 fold
O=C1[C@@H](CCO)CC2=C([C@@H]3Oc4c(O)ccc5c4[C@@]34CCN(CC3CC3)[C@H](C5)[C@]4(O)C2)N1Cc1ccccc1 [5j] | 0.93 | 2.22 | 1.62 | –
O=C1CCC2=C([C@@H]3Oc4c(O)ccc5c4[C@@]34CCN(CC3CC3)[C@H](C5)[C@]4(O)C2)N1Cc1ccccc1 [5k, 1′-Benzyl-17-cyclopropylmethyl-6,7-didehydro-4,5-epoxy-4′,5′-dihydro-3,14-dihydroxy-pyrido[2,3: 6,7-]morphinan-6(1H)-one] | – | 0.13 | 0.2 | fold more potent as KOPr antagonist than 17-methyl equivalent (KOPr [2]): over 160 fold
O=C1CCC2=C([C@@H]3Oc4c(O)ccc5c4[C@@]34CCN(CC3CC3)[C@H](C5)[C@]4(O)C2)N1CC1CCCCC1 [5n, 1′-Cyclohexylmethyl-17-cyclopropylmethyl-6,7-didehydro-4,5-epoxy-4′,5′-dihydro-3,14-dihydroxy-pyrido[2,3: 6,7-]morphinan-6(1H)-one] | – | 0.48 | 0.27 | –
Cc1[nH]c2c(c1Cc1ccccc1)C[C@@]1(O)[C@H]3Cc4ccc(O)c5c4[C@@]1(CCN3CC1CC1)[C@H]2O5 [6b] | – | – | – | DOPr antagonist selectivity over both MOPr and KOPr (DOPr [6]): 50 fold
CN1CC[C@]23c4c5ccc(O)c4O[C@H]2c2ncccc2C[C@@]3(O)[C@H]1C5 [7a, reference compound] | – | – | – | fold lower DOPr affinity than 5b (DOPr [4]): 20 fold; fold lower MOPr affinity than 5b (MOPr [7]): 27 fold; EC50 (MOPr [8]): 3000 nM; fold lower KOPr affinity than 5b (KOPr [5]): 130 fold
Oc1ccc2c3c1O[C@H]1c4ncccc4C[C@@]4(O)[C@@H](C2)N(CC2CC2)CC[C@]314 [7b] | – | – | – | Kd (MOPr [9]): 164 nM; fold lower MOPr antagonist potency than 5k (MOPr [10]): 800 fold
